Activity calls are given as the source filed them. The calls are words filed in the database; no cut-off is given here.
Key:
[1] = Acute toxicity in Balb/C mouse assessed as morphological changes in skin at 1250 to 2000 mg/kg, po; type: organism-based; conditions: in vivo, dose 1250-2000 mg/kg
Rattus norvegicus [2] = test: Reduction of alkaline phosphatase (ALP) level in STZ-induced type 2 diabetes male Wistar albino rat model at 20 mg/kg, po measured after 4 weeks by hepatic function test; type: functional, organism-based
Rattus norvegicus [3] = test: Anti-diabetic activity in normal Wistar rat model assessed as blood glucose level at 20 mg/kg, po followed by treated administered 3 mg/kg orally measured after 30 mins by Oral glucose tolerance test (reference value: 176.14 + /- 4.04 mg/dL); type: functional; conditions: 0.5 h
Rattus norvegicus [4] = test: Reduction of serum glutamate oxaloacetate transaminase (SGOT) level in STZ-induced type 2 diabetes male Wistar albino rat model at 20 mg/kg, po measured after 4 weeks by hepatic function test; type: functional, organism-based
Rattus norvegicus [5] = test: Antihyperlipidemic effect in STZ-induced type 2 diabetes male Wistar albino rat model assessed as LDL level at 10 mg/kg, po measured after 4 weeks (reference value: 184.65 +/- 4.57 mg/dL); type: functional
Rattus norvegicus [6] = test: Anti-diabetic activity in normal Wistar rat model assessed as blood glucose level at 10 mg/kg, po followed by treated administered 3 mg/kg orally measured after 120 mins by Oral glucose tolerance test (reference value: 126.5 + /- 3.90 mg/dL); type: functional; conditions: 2 h
Rattus norvegicus [7] = test: Anti-diabetic activity in normal Wistar rat model assessed as blood glucose level at 10 mg/kg, po followed by treated administered 3 mg/kg orally measured after 90 mins by Oral glucose tolerance test (reference value: 134.11 + /- 4.64 mg/dL); type: functional; conditions: 1.5 h
Dipeptidyl peptidase 4 = Dipeptidyl peptidase 4 (Homo sapiens, UniProt P27487); test: Inhibition of DPP4 (unknown origin) assessed as hydrolysis rate using Gly-pro-p-nitroanilide as substrate measured after 20 mins incubation by fluorometric assay
Rattus norvegicus [8] = test: Anti-diabetic activity in normal Wistar rat model assessed as blood glucose level at 20 mg/kg, po followed by treated administered 3 mg/kg orally measured after 120 mins by Oral glucose tolerance test (reference value: 126.5 + /- 3.90 mg/dL); type: functional; conditions: 2 h
Rattus norvegicus [9] = test: Anti-diabetic activity in normal Wistar rat model assessed as blood glucose level at 10 mg/kg, po followed by treated administered 3 mg/kg orally measured immediately after administration by Oral glucose tolerance test (reference value: 105.12 mg/dL); type: functional
Rattus norvegicus [10] = test: Anti-diabetic activity in normal Wistar rat model assessed as blood glucose level at 20 mg/kg, po followed by treated administered 3 mg/kg orally measured immediately after administration by Oral glucose tolerance test (reference value: 105.12 mg/dL); type: functional
Rattus norvegicus [11] = test: Anti-diabetic activity in normal Wistar rat model assessed as blood glucose level at 20 mg/kg, po followed by treated administered 3 mg/kg orally measured after 90 mins by Oral glucose tolerance test (reference value: 134.11 + /- 4.64 mg/dL); type: functional; conditions: 1.5 h
Rattus norvegicus [12] = test: Antihyperlipidemic effect in STZ-induced type 2 diabetes male Wistar albino rat model assessed as total cholesterol level at 20 mg/kg, po measured after 4 weeks (reference value: 227.04 +/- 4.10 mg/dL); type: functional
[13] = Acute toxicity in Balb/C mouse assessed as morphological changes in fur at 1250 to 2000 mg/kg, po; type: organism-based; conditions: in vivo, dose 1250-2000 mg/kg
Rattus norvegicus [14] = test: Antihyperlipidemic effect in STZ-induced type 2 diabetes male Wistar albino rat model assessed as triglyceride level at 10 mg/kg, po measured after 4 weeks (reference value: 190.23 +/- 4.37 mg/dL); type: functional
Rattus norvegicus [15] = test: Anti-diabetic activity in normal Wistar rat model assessed as blood glucose level at 10 mg/kg, po followed by treated administered 3 mg/kg orally measured after 60 mins by Oral glucose tolerance test (reference value: 153.74 + /- 3.94 mg/dL); type: functional; conditions: 1 h
[16] = Acute toxicity in Balb/C mouse assessed as morphological changes in salvation at 1250 to 2000 mg/kg, po; type: organism-based; conditions: in vivo, dose 1250-2000 mg/kg
Rattus norvegicus [17] = test: Reduction of serum glutamate oxaloacetate transaminase (SGOT) level in STZ-induced type 2 diabetes male Wistar albino rat model at 10 mg/kg, po measured after 4 weeks by hepatic function test; type: functional, organism-based
Rattus norvegicus [18] = test: Antihyperlipidemic effect in STZ-induced type 2 diabetes male Wistar albino rat model assessed as HDL level at 10 mg/kg, po measured after 4 weeks (reference value: 25.54 +/- 2.62 mg/dL); type: functional
Rattus norvegicus [19] = test: Anti-diabetic activity in normal Wistar rat model assessed as blood glucose level at 20 mg/kg, po followed by treated administered 3 mg/kg orally measured after 60 mins by Oral glucose tolerance test (reference value: 153.74 + /- 3.94 mg/dL); type: functional; conditions: 1 h
[20] = Acute toxicity in Balb/C mouse assessed as morphological changes in convulsions at 1250 to 2000 mg/kg, po; type: organism-based; conditions: in vivo, dose 1250-2000 mg/kg
[21] = Acute toxicity in Balb/C mouse assessed as morphological changes in diarrhea at 1250 to 2000 mg/kg, po; type: organism-based; conditions: in vivo, dose 1250-2000 mg/kg
Rattus norvegicus [22] = test: Reduction of alkaline phosphatase (ALP) level in STZ-induced type 2 diabetes male Wistar albino rat model at 10 mg/kg, po measured after 4 weeks by hepatic function test; type: functional, organism-based
Rattus norvegicus [23] = test: Reduction of serum glutamate pyruvate transaminase (SGPT) level in STZ-induced type 2 diabetes male Wistar albino rat model at 10 mg/kg, po measured after 4 weeks by hepatic function test; type: functional, organism-based
Rattus norvegicus [24] = test: Reduction of insulin level in STZ-induced type 2 diabetes male Wistar albino rat model at 20 mg/kg, po measured after 4 weeks by hepatic function test; type: functional, organism-based
Rattus norvegicus [25] = test: Anti-diabetic activity in STZ-induced type 2 diabetes male Wistar albino rat model assessed as fasting blood glucose level at 20 mg/kg, po measured on day 7; type: functional; conditions: time 7 day
Rattus norvegicus [26] = test: Reduction of serum glutamate pyruvate transaminase (SGPT) level in STZ-induced type 2 diabetes male Wistar albino rat model at 20 mg/kg, po measured after 4 weeks by hepatic function test; type: functional, organism-based
Rattus norvegicus [27] = test: Anti-diabetic activity in normal Wistar rat model assessed as blood glucose level at 10 mg/kg, po followed by treated administered 3 mg/kg orally measured after 30 mins by Oral glucose tolerance test (reference value: […] 176.14 + /- 4.04 mg/dL); type: functional; conditions: 0.5 h
Rattus norvegicus [28] = test: Anti-diabetic activity in STZ-induced type 2 diabetes male Wistar albino rat model assessed as fasting blood glucose level at 20 mg/kg, po measured on day 14; type: functional; conditions: time 14 day
Rattus norvegicus [29] = test: Antihyperlipidemic effect in STZ-induced type 2 diabetes male Wistar albino rat model assessed as triglyceride level at 20 mg/kg, po measured after 4 weeks (reference value: 190.23 +/- 4.37 mg/dL); type: functional
Rattus norvegicus [30] = test: Antihyperlipidemic effect in STZ-induced type 2 diabetes male Wistar albino rat model assessed as HDL level at 20 mg/kg, po measured after 4 weeks (reference value: 25.54 +/- 2.62 mg/dL); type: functional
[31] = Acute toxicity in Balb/C mouse assessed as morphological changes in eyes at 1250 to 2000 mg/kg, po; type: organism-based; conditions: in vivo, dose 1250-2000 mg/kg
[32] = Acute toxicity in Balb/C mouse assessed as morphological changes in unusual behavior at 1250 to 2000 mg/kg, po; type: organism-based; conditions: in vivo, dose 1250-2000 mg/kg

Chain of Dipeptidyl peptidase 4 (P27487 whole entry): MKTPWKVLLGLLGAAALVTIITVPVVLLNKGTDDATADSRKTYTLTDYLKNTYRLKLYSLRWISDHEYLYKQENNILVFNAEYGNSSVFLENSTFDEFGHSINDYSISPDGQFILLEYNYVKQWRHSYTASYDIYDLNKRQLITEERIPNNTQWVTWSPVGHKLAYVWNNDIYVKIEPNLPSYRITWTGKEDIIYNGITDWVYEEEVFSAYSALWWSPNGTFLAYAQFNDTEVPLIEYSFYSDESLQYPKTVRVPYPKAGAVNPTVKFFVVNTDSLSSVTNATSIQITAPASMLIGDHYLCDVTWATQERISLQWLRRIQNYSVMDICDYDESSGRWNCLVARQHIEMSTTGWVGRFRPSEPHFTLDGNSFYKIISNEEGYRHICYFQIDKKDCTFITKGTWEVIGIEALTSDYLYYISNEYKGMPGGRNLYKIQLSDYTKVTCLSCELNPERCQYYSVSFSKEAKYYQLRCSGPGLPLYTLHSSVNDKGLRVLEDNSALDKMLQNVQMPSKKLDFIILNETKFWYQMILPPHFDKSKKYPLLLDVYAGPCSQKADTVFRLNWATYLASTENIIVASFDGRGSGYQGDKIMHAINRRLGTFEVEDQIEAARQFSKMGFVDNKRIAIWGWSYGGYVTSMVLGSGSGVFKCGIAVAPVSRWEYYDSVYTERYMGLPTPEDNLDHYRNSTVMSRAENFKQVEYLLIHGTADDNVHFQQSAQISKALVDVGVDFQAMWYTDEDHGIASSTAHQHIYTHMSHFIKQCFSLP

Question: For `CC1=C([N+](=O)[O-])C(c2ccc(F)c(F)c2)N=C(N)N1C(=O)CN1Cc2cn(S(C)(=O)=O)nc2C1` (stereo not drawn), which Activity [1] is on record?
Answer: Non-Toxic

Question: And the Activity (Rattus norvegicus [2])?
Answer: Active

Question: What about the Activity (Rattus norvegicus [3]) of the same molecule?
Answer: 119.42 mg/dL

Question: And the Activity (Rattus norvegicus [4])?
Answer: Active

Question: And the Activity (Rattus norvegicus [5])?
Answer: 135.67 mg/dL

Question: And the Activity (Rattus norvegicus [6])?
Answer: 115.78 mg/dL

Question: And the Activity (Rattus norvegicus [7])?
Answer: 113.96 mg/dL

Question: What about the IC50 (Dipeptidyl peptidase 4) of the same molecule?
Answer: 55 nM

Question: And the Activity (Rattus norvegicus [8])?
Answer: 111.56 mg/dL

Question: And the Activity (Rattus norvegicus [9])?
Answer: 103.57 mg/dL

Question: What about the Activity (Rattus norvegicus [10]) of the same molecule?
Answer: 101.87 mg/dL

Question: What about the Activity (Rattus norvegicus [11]) of the same molecule?
Answer: 110.57 mg/dL

Question: And the Activity (Rattus norvegicus [12])?
Answer: 137.34 mg/dL

Question: And the Activity [13]?
Answer: Non-Toxic

Question: And the Activity (Rattus norvegicus [14])?
Answer: 150.32 mg/dL

Question: And the Activity (Rattus norvegicus [15])?
Answer: 118.35 mg/dL

Question: What about the Activity [16] of the same molecule?
Answer: Non-Toxic

Question: What about the Activity (Rattus norvegicus [17]) of the same molecule?
Answer: Active

Question: And the Activity (Rattus norvegicus [18])?
Answer: 46.32 mg/dL

Question: And the Activity (Rattus norvegicus [19])?
Answer: 115.22 mg/dL

Question: What about the Activity [20] of the same molecule?
Answer: Non-Toxic

Question: And the Activity [21]?
Answer: Non-Toxic

Question: What about the Activity (Rattus norvegicus [22]) of the same molecule?
Answer: Active

Question: And the Activity (Rattus norvegicus [23])?
Answer: Active

Question: And the Activity (Rattus norvegicus [24])?
Answer: Active

Question: What about the Activity (Rattus norvegicus [25]) of the same molecule?
Answer: 188 mg/dL

Question: What about the Activity (Rattus norvegicus [26]) of the same molecule?
Answer: Active

Question: And the Activity (Rattus norvegicus [27])?
Answer: 123.04 mg/dL

Question: And the Activity (Rattus norvegicus [28])?
Answer: 167 mg/dL

Question: What about the Activity (Rattus norvegicus [29]) of the same molecule?
Answer: 118.76 mg/dL

Question: What about the Activity (Rattus norvegicus [30]) of the same molecule?
Answer: 54.1 mg/dL

Question: What about the Activity [31] of the same molecule?
Answer: Non-Toxic

Question: And the Activity [32]?
Answer: Non-Toxic

Reference: ChEMBL document CHEMBL6127049, “Discovery of the selective and nanomolar inhibitor of DPP-4 more potent than sitagliptin by structure-guided rational design” (Eur J Med Chem, 2024)
